Laboratory results taken from US20170232083A1, “METHODS OF DIAGNOSIS AND TREATMENT OF CELIAC DISEASE IN CHILDREN” (priority 2014, published 2017).

Tested on: PBMC (polyclonal gluten-specific T cells) of paediatric and adult CD patients
Assay: IFN-γ ELISpot of PBMC after 3 day oral wheat challenge (SFU, % of maximal peptide response, dominance scores, EC50; Examples 5-6)
Assay type: cell-based, human
Settings: for IFN-γ ELISpot response: after oral wheat challenge; for Cross-reactive T cell response: following wheat challenge
[1] = patient A, 11-17 yrs, cut-off 10 SFU
[2] = patient E, H, 11-17 yrs, cut-off 10 SFU
[3] = patient F, 11-17 yrs, cut-off 10 SFU
[4] = patient G, 11-17 yrs, cut-off 10 SFU
[5] = patient H (HLA-DQ2.5 homozygote), 3-5yrs, cut-off 10 SFU
[6] = patient H, 11-17 yrs, cut-off 10 SFU
[7] = patient ID not given, 11-17 yrs, cut-off 10 SFU
[8] = patient N, 3-5yrs, cut-off 10 SFU
[9] = patient P, 11-17 yrs, cut-off 21.6 SFU
[10] = patient Q, 11-17 yrs, cut-off 10 SFU
[11] = patient U, H, 11-17 yrs, cut-off 10 SFU
[12] = patient V, 6-10 yrs, cut-off 10 SFU
[13] = patient Y, 6-10 yrs, cut-off 10 SFU
[14] = patient eleven, 6-10 yrs, cut-off 10 SFU
[15] = patient four, 3-5yrs, cut-off 10 SFU
[16] = patient seven, 6-10 yrs, cut-off 10.5 SFU
[17] = patient ten, 3-5yrs, cut-off 10 SFU
[18] = patient three, 6-10 yrs, cut-off 10.5 SFU
[19] = patient twelve, 11-17 yrs, cut-off 10 SFU
[20] = patient two, 3-5yrs, cut-off 10 SFU
[21] = patient ID not given, max peptide 95 SFU
[22] = patient eleven, max peptide 57 SFU
[23] = patient five, max peptide 48 SFU
[24] = patient two, max peptide 60 SFU

GQSGYYPTSPQQS
IFN-γ ELISpot response [1]: 5 SFU
IFN-γ ELISpot response [2]: 0 SFU
IFN-γ ELISpot response [3]: 10 SFU
Significant response as percentage of maximal peptide SFU (patient F, max peptide 178 SFU): (6-10% = ^)
IFN-γ ELISpot response [4]: 1 SFU
IFN-γ ELISpot response [5]: 2 SFU
IFN-γ ELISpot response [6]: 4 SFU
IFN-γ ELISpot response [7]: 1 SFU
Significant response as percentage of maximal peptide SFU (patient II, max peptide 15 SFU): + (>70% = +)
IFN-γ ELISpot response [8]: 0 SFU
IFN-γ ELISpot response [9]: 10 SFU
IFN-γ ELISpot response [10]: 5 SFU
IFN-γ ELISpot response [11]: 4 SFU
IFN-γ ELISpot response [12]: 3 SFU
IFN-γ ELISpot response [13]: 0 SFU
IFN-γ ELISpot response [14]: 4 SFU
IFN-γ ELISpot response [15]: 3 SFU
IFN-γ ELISpot response [16]: 11 SFU
Significant response as percentage of maximal peptide SFU (patient seven, max peptide 27 SFU): ′′′ (41-70% = ′′′)
IFN-γ ELISpot response [17]: 5 SFU
IFN-γ ELISpot response [18]: 6 SFU
IFN-γ ELISpot response [19]: 2 SFU
IFN-γ ELISpot response [20]: 2 SFU

LPFPQPEQPFVVV
Cross-reactive T cell response (subject A, 11-17yrs): 1 SFU
Significant response as a percentage of maximal peptide SFU (subject D, 11-17yrs): ′′′ (41-70% = ′′′)
Cross-reactive T cell response (subject D, 11-17yrs): 20 SFU
Significant response as a percentage of maximal peptide SFU (subject E, 11-17yrs): (6-10% - ^)
Cross-reactive T cell response (subject E, 11-17yrs): 16 SFU
Significant response as a percentage of maximal peptide SFU (subject F, 11-17yrs): (6-10% - ^)
Cross-reactive T cell response (subject F, 11-17yrs): 15 SFU
Cross-reactive T cell response (subject G, 11-17yrs): 3 SFU
Cross-reactive T cell response (subject H): 3 SFU
Cross-reactive T cell response (subject I (3-5yrs/6-10yrs part)): 7 SFU
Significant response as a percentage of maximal peptide SFU (subject J): ′ (11-20% = ′)
Cross-reactive T cell response (subject J (3-5yrs/6-10yrs part)): 29 SFU
Significant response as a percentage of maximal peptide SFU (subject K): ′′ (21-40% = ′′)
Cross-reactive T cell response (subject K (3-5yrs/6-10yrs part)): 18 SFU
Cross-reactive T cell response (subject P, 11-17yrs): 20 SFU
Significant response as a percentage of maximal peptide SFU (subject Q, 11-17yrs): ′′ (21-40% = ′′)
Cross-reactive T cell response (subject Q, 11-17yrs): 31 SFU
Significant response as a percentage of maximal peptide SFU (subject T, 11-17yrs): ′′′ (41-70% = ′′′)
Cross-reactive T cell response (subject T, 11-17yrs): 42 SFU
Cross-reactive T cell response (subject U, 11-17yrs): 8 SFU
Significant response as a percentage of maximal peptide SFU (subject V): ′′ (21-40% = ′′)
Cross-reactive T cell response (subject V (3-5yrs/6-10yrs part)): 13 SFU
Cross-reactive T cell response (subject W (3-5yrs/6-10yrs part)): 9 SFU
Cross-reactive T cell response (subject Y (3-5yrs/6-10yrs part)): 7 SFU
Significant response as a percentage of maximal peptide SFU (subject five): + (>70% = +)
Cross-reactive T cell response (subject five (3-5yrs/6-10yrs part)): 34 SFU
Cross-reactive T cell response (subject nine, 11-17yrs): 1 SFU
Cross-reactive T cell response (subject seven (3-5yrs/6-10yrs part)): 3 SFU
Cross-reactive T cell response (subject six (3-5yrs/6-10yrs part)): 8 SFU
Cross-reactive T cell response (subject ten (3-5yrs/6-10yrs part)): 8 SFU
Significant response as a percentage of maximal peptide SFU (subject two): ′′ (21-40% = ′′)
Cross-reactive T cell response (subject two (3-5yrs/6-10yrs part)): 18 SFU

LPYPQPQLPYPQP
IFN-γ ELISpot response [1]: 3 SFU
IFN-γ ELISpot response [2]: 61 SFU
Significant response as percentage of maximal peptide SFU (patient E, max peptide 224 SFU): ′′ (21-40% = ′′)
IFN-γ ELISpot response [3]: 120 SFU
Significant response as percentage of maximal peptide SFU (patient F, max peptide 178 SFU): ′′′ (41-70% = ′′′)
IFN-γ ELISpot response [4]: 2 SFU
IFN-γ ELISpot response [5]: 13 SFU
IFN-γ ELISpot response [6]: 13 SFU
Significant response as percentage of maximal peptide SFU (patient H, max peptide 17 SFU): + (>70% = +)
IFN-γ ELISpot response [7]: 49 SFU
Significant response as percentage of maximal peptide SFU [21]: ′′′ (41-70% = ′′′)
Significant response as percentage of maximal peptide SFU (patient II, max peptide 15 SFU): + (>70% = +)
Significant response as percentage of maximal peptide SFU (patient J, max peptide 196 SFU): ′′ (21-40% = ′′)
Significant response as percentage of maximal peptide SFU (patient K, max peptide 53 SFU): ′′ (21-40% = ′′)
Significant response as percentage of maximal peptide SFU (patient M, max peptide 48 SFU): ′′ (21-40% = ′′)
IFN-γ ELISpot response [8]: 3 SFU
IFN-γ ELISpot response [9]: 17 SFU
IFN-γ ELISpot response [10]: 53 SFU
Significant response as percentage of maximal peptide SFU (patient Q, max peptide 97 SFU): ′′′ (41-70% = ′′′)
IFN-γ ELISpot response [11]: 25 SFU
Significant response as percentage of maximal peptide SFU (patient U, max peptide 81 SFU): ′′ (21-40% = ′′)
IFN-γ ELISpot response [12]: 18 SFU
Significant response as percentage of maximal peptide SFU (patient V, max peptide 35 SFU): ′′′ (41-70% = ′′′)
IFN-γ ELISpot response [13]: 16 SFU
Significant response as percentage of maximal peptide SFU (patient Y, max peptide 16 SFU): + (>70% = +)
IFN-γ ELISpot response [14]: 25 SFU
Significant response as percentage of maximal peptide SFU [22]: ′′′ (41-70% = ′′′)
Significant response as percentage of maximal peptide SFU [23]: ′′ (21-40% = ′′)
IFN-γ ELISpot response [15]: 22 SFU
Significant response as percentage of maximal peptide SFU (patient four, max peptide 44 SFU): ′′′ (41-70% = ′′′)
IFN-γ ELISpot response [16]: 8 SFU
IFN-γ ELISpot response [17]: 7 SFU
IFN-γ ELISpot response [18]: 75 SFU
IFN-γ ELISpot response [19]: 5 SFU
IFN-γ ELISpot response [20]: 14 SFU
Significant response as percentage of maximal peptide SFU [24]: ′′ (21-40% = ′′)

LQPFPQPELPYPQPQ
IFN-γ ELISpot response [1]: 2.5 SFU
Significant response as percentage of maximal peptide SFU (patient D, max peptide 30.5 SFU): + (>70% = +)
IFN-γ ELISpot response [2]: 152 SFU
Significant response as percentage of maximal peptide SFU (patient E, max peptide 224 SFU): ′′′ (41-70% = ′′′)
IFN-γ ELISpot response [3]: 166.5 SFU
Significant response as percentage of maximal peptide SFU (patient F, max peptide 178 SFU): + (>70% = +)
IFN-γ ELISpot response [4]: 10 SFU
Significant response as percentage of maximal peptide SFU (patient G, max peptide 15 SFU): ′′′ (41-70% = ′′′)
IFN-γ ELISpot response [5]: 31 SFU
IFN-γ ELISpot response [6]: 8 SFU
IFN-γ ELISpot response [7]: 66.5 SFU
Significant response as percentage of maximal peptide SFU [21]: ′′′ (41-70% = ′′′)
Significant response as percentage of maximal peptide SFU (patient J, max peptide 196 SFU): ′′′ (41-70% = ′′′)
Significant response as percentage of maximal peptide SFU (patient K, max peptide 53 SFU): ′′ (21-40% = ′′)
Significant response as percentage of maximal peptide SFU (patient M, max peptide 48 SFU): ′′′ (41-70% = ′′′)
IFN-γ ELISpot response [8]: 5.5 SFU
IFN-γ ELISpot response [9]: 41.5 SFU
Significant response as percentage of maximal peptide SFU (patient P, max peptide 64 SFU): ′′′ (41-70% = ′′′)
IFN-γ ELISpot response [10]: 67.5 SFU
Significant response as percentage of maximal peptide SFU (patient Q, max peptide 97 SFU): ′′′ (41-70% = ′′′)
IFN-γ ELISpot response [11]: 45 SFU
Significant response as percentage of maximal peptide SFU (patient U, max peptide 81 SFU): ′′′ (41-70% = ′′′)
IFN-γ ELISpot response [12]: 30 SFU
Significant response as percentage of maximal peptide SFU (patient V, max peptide 35 SFU): + (>70% = +)
IFN-γ ELISpot response [13]: 10.5 SFU
Significant response as percentage of maximal peptide SFU (patient Y, max peptide 16 SFU): ′′′ (41-70% = ′′′)
Significant response as percentage of maximal peptide SFU (patient Z, max peptide 13 SFU): + (>70% = +)
Significant response as percentage of maximal peptide SFU (patient eight, max peptide 12 SFU): + (>70% = +)
IFN-γ ELISpot response [14]: 57 SFU
Significant response as percentage of maximal peptide SFU [22]: + (>70% = +)
Significant response as percentage of maximal peptide SFU [23]: + (>70% = +)
IFN-γ ELISpot response [15]: 40.5 SFU
Significant response as percentage of maximal peptide SFU (patient one, max peptide 16.5 SFU): + (>70% = +)
IFN-γ ELISpot response [16]: 8 SFU
IFN-γ ELISpot response (patient six, 3-5yrs, cut-off 10 SFU): 13 SFU
Significant response as percentage of maximal peptide SFU (patient six, max peptide 13 SFU): + (>70% = +)
IFN-γ ELISpot response [17]: 14 SFU
Significant response as percentage of maximal peptide SFU (patient ten, max peptide 14.5 SFU): + (>70% = +)
IFN-γ ELISpot response [18]: 99.5 SFU
IFN-γ ELISpot response [19]: 27 SFU
IFN-γ ELISpot response [20]: 29 SFU
Significant response as percentage of maximal peptide SFU [24]: ′′′ (41-70% = ′′′)
